# Assay: Solubility of the active principles
# Type: physicochemical
row,solubility [µg/mL],SMILES
1,300,O=C1CN(/N=C/c2ccc([N+](=O)[O-])o2)C(=O)N1 [Nitrofurantoin]
2,50,Cc1c(OCC(F)(F)F)ccnc1C[S+]([O-])c1nc2ccccc2[nH]1 (stereo not shown) [Lansoprazole]
3,10000,Nc1nc2c(ncn2COCCO)c(=O)[nH]1 [Acyclovir]
4,20,CC(=O)S[C@@H]1CC2=CC(=O)CC[C@]2(C)[C@H]2CC[C@@]3(C)[C@@H](CC[C@@]34CCC(=O)O4)[C@H]12 [Spironolactone]
